# Experimental data reported in the PolyMetriX glass transition set.
# ± gives the standard deviation of the reports.
row,Compound,glass transition temperature [°C]
1,*c1cc(C(c2ccc(OCCN(c3ccccc3)c3ccc(/C=C/C4=CC(=C(C#N)C#N)CC(C)(C)C4)cc3)c(N3C(=O)c4ccc(Oc5ccc6c(c5)C(=O)N(*)C6=O)cc4C3=O)c2)(C(F)(F)F)C(F)(F)F)ccc1OCCN(c1ccccc1)c1ccc(/C=C/C2=CC(=C(C#N)C#N)CC(C)(C)C2)cc1 (repeat unit),220.00
2,*CC(*)c1ccccn1 (repeat unit) [Poly(o-vinyl pyridine) ],104 ± 1.1
3,*Oc1c(C)cc(*)cc1C(C)CCCC (repeat unit),85.00
4,*c1ccc2c(c1)C(=O)N(c1ccc(Oc3ccc(Oc4ccc(N5C(=O)c6ccc(C(*)(C(F)(F)F)C(F)(F)F)cc6C5=O)cc4)cc3)c(C(F)(F)F)c1)C2=O (repeat unit),260.80
5,*OC(=O)c1cccc(C(*)=O)c1 (repeat unit),130.00
6,*C(=O)Nc1ccc(NC(=O)c2ccc(NC(=O)c3ccc(-c4nc5cc(*)ccc5[nH]4)cc3)cc2)cc1 (repeat unit),295.00
7,*c1ccc(N(c2ccc(C#N)cc2)c2ccc(N3C(=O)c4ccc(Oc5ccc(C(c6ccc(Oc7ccc8c(c7)C(=O)N(*)C8=O)cc6)(C(F)(F)F)C(F)(F)F)cc5)cc4C3=O)cc2)cc1 (repeat unit),234.00
8,*OP(=O)(Oc1ccc(C)cc1)Oc1c(C)cc(S(=O)(=O)c2cc(C)c(*)c(C)c2)cc1C (repeat unit),128.00
9,*C[Si](*)(CCCC)CCCC (repeat unit),-30.00
10,*OC(C)CCCC(C)C(*)=O (repeat unit),-33.00
11,*CCCCCCCCCOC(=O)c1ccc(-c2ccc(C(=O)O*)cc2)cc1 (repeat unit),50.50
12,*CCN(CCN1C(=O)c2ccc(C(c3ccc4c(c3)C(=O)N(*)C4=O)(C(F)(F)F)C(F)(F)F)cc2C1=O)c1ccc(/N=N/c2ccc([N+](=O)[O-])cc2)cc1 (repeat unit),210.00
13,*C(=O)c1cc2c(cc1Cl)C(=O)N(c1cc(C(=O)OC)cc(N3C(=O)c4cc(*)c(Cl)cc4C3=O)c1)C2=O (repeat unit),321.00
14,*CC(*)c1ccc(Cl)c([N+](=O)[O-])c1 (repeat unit),132.90
15,*N/C(C#N)=C(\C#N)NC(=O)c1ccc(C(*)=O)cc1 (repeat unit),232.00
16,*c1cc(Br)c(-c2c(Br)cc(N3C(=O)c4ccc(-c5ccc6c(c5)C(=O)N(*)C6=O)cc4C3=O)cc2C(=O)OCCCCCC)c(C(=O)OCCCCCC)c1 (repeat unit),154.00
17,*/C=C/* (repeat unit),-4.00
18,*c1cccc(OCCCCOc2cccc(N3C(=O)c4ccc(-c5cccc6c5C(=O)N(*)C6=O)cc4C3=O)c2)c1 (repeat unit),178.00
19,*NC(CCC(=O)OCc1ccc(C(F)(F)F)cc1)C(*)=O (repeat unit),26.57
20,*Oc1ccc(C(C)(C)c2ccc(Oc3ccc(C(=O)Nc4cccc(NC(=O)c5ccc(*)cc5)c4)cc3)cc2)cc1 (repeat unit),214.00
21,*c1ccc(Oc2ccc(N3C(=O)c4c(c(-c5ccccc5)c(-c5ccc(-c6c(-c7ccccc7)c7c(c(-c8ccccc8)c6-c6ccccc6)C(=O)N(*)C7=O)cc5)c(-c5ccccc5)c4-c4ccccc4)C3=O)cc2)cc1 (repeat unit),413.00

row,Compound,glass transition temperature [°C]
1,*c1ccc(-c2cnc3cc(S(=O)(=O)c4ccc5nc(*)cnc5c4)ccc3n2)cc1 (repeat unit),342.00
2,*C(=O)c1ccc(Oc2ccc(S(=O)(=O)c3ccc(Oc4ccc(C(=O)c5ccc6c(c5)C(=O)N(c5ccc(Cc7ccc(N8C(=O)c9ccc(*)cc9C8=O)cc7)cc5)C6=O)cc4)cc3)cc2)cc1 (repeat unit),245.00
3,*C(=O)Oc1ccc(OC(=O)c2ccc3c(c2)C(=O)N(c2ccc(Cc4ccc(N5C(=O)c6ccc(*)cc6C5=O)cc4)cc2)C3=O)c(C(C)(C)C)c1 (repeat unit),160.00
4,*C(C(=O)OC)C(*)C(=O)OC(C)(C)C (repeat unit),84.00
5,*/C=C/c1cc(OCC(CC)CCCC)c(*)cc1OC (repeat unit),79.00
6,*CC(*)(C)C(=O)OCCC(C)CC(C)(C)C (repeat unit),1.00
7,*CC(*)(C)C(=O)OCCN(CC)c1ccc(/N=N/c2nc3ccc([N+](=O)[O-])cc3s2)cc1 (repeat unit),140.00
8,*CCCCCCOC(=O)OCCCCCCCCCOC(=O)OCCCCCCOc1ccc(Oc2ccc(O*)cc2)cc1 (repeat unit),-20.00
9,*C1CCC(N2C(=O)c3ccc(-c4ccc5c(c4)C(=O)N(*)C5=O)cc3C2=O)CC1 (repeat unit),360.00
10,*C#Cc1cccc(C#C[Si](*)(C)C)c1 (repeat unit),50.00
11,*c1ccc(Oc2ccc(-n3nc(-c4ccccc4)cc3-c3ccc(-c4cc(-c5ccccc5)nn4*)cc3)cc2)cc1 (repeat unit),260.00
12,*OCCCCOC1COC2C(OC(=O)CCCCC(=O)OC3COC4C(*)COC34)COC12 (repeat unit),114.00
13,*Oc1ccc(Oc2ccc(C(=O)c3ccc(-c4ccc(C(=O)c5ccc(*)cc5)cc4)cc3)cc2)cc1-c1cccc(C)c1 (repeat unit),170.00
14,*Nc1ccc(Br)cc1-c1ccc(NC(=O)c2ccc(C(*)=O)cc2)cc1 (repeat unit),285.00
15,*CC(O)CN(*)c1ccc(/N=N/c2ccc([N+](=O)[O-])cc2C)cc1 (repeat unit),156.00
16,*Oc1ccc(Oc2ccc(C(=O)c3ccc(*)cc3)cc2)cc1-c1cc(C)cc(C)c1 (repeat unit),162.00
17,*c1ccc(N2C(=O)c3ccc(C(=O)c4ccc5c(c4)C(=O)N(c4ccc6[nH]c(*)nc6c4)C5=O)cc3C2=O)cc1 (repeat unit),412.00
18,*CCCCCCCCCCOc1ccc(-c2cc(-c3ccccc3)c(-c3ccc(NC(=O)c4ccc(C(=O)Nc5ccc(-c6c(-c7ccccc7)cc(-c7ccc(O*)cc7)cc6-c6ccccc6)cc5)cc4)cc3)c(-c3ccccc3)c2)cc1 (repeat unit),116.00
19,*Oc1ccc(OC(=O)c2ccc(C(*)=O)cc2Sc2ccc(C)cc2)cc1 (repeat unit),134.00
20,*Oc1ccc2ccc(Oc3ccc(C(=O)Nc4ccc(Oc5ccc(C(C)(c6ccccc6)c6ccc(Oc7ccc(NC(=O)c8ccc(*)cc8)cc7)cc6)cc5)cc4)cc3)cc2c1 (repeat unit),177.00
21,*CCCCCCCCCCNC(=O)CCCCCCCCCCCCCCCCC(=O)N* (repeat unit),46.00

row,Compound,glass transition temperature [°C]
1,*CC(*)N1CCCCCC1=O (repeat unit),174.60
2,*CCCCCCCCCCN1C(=O)c2ccc(-c3ccc(-c4ccc5c(c4)C(=O)N(*)C5=O)cc3)cc2C1=O (repeat unit),103.00
3,*CCCCCCNC(=O)CCCCCCC(=O)N* (repeat unit),57.00
4,*C1=C(c2ccc(-c3ccc4c(c3)C(CCCCCC)(CCCCCC)c3cc(-c5ccc(*)cc5)ccc3-4)cc2)C(=O)N(CCCC)C1=O (repeat unit),155.00
5,*c1ccc(Cc2ccc(N(c3ccc(C)cc3)c3ccc(-c4ccc(N(*)c5ccc(C)cc5)cc4)cc3)cc2)cc1 (repeat unit),183.00
6,*Oc1ccc(Oc2ccc(C(=O)c3ccc(*)c(S(=O)(=O)O)c3)cc2S(=O)(=O)O)cc1 (repeat unit),220.00
7,*Oc1ccc(P(C)(=O)c2ccc(*)cc2)cc1 (repeat unit),238.00
8,*C1OC(C(F)(F)F)(C(F)(F)F)OC1(*)F (repeat unit),256.00
9,*CC(*)(C)C(=O)OCCN(C)c1ccc(/N=N/c2ccc(/N=N/c3ccc(C#N)cc3)cc2C)cc1 (repeat unit),120.00
10,*Oc1ccc(NC(=O)c2ccc(C(c3ccc(C(=O)Nc4ccc(Oc5ccc(C6(c7ccc(*)cc7)C7CC8CC(C7)CC6C8)cc5)cc4)cc3)(C(F)(F)F)C(F)(F)F)cc2)cc1 (repeat unit),241.00
11,*CCCCCOC(=O)c1ccc(/C=C/c2ccc(C(=O)O*)cc2)cc1 (repeat unit),60.00
12,*c1ccc(OCCCCCCCCCCCOc2ccc(-c3ccc4nc(-c5cccc(-c6cc(-c7ccccc7)c7cc(*)ccc7n6)c5)cc(-c5ccccc5)c4c3)cc2)cc1 (repeat unit),133.50
13,*CCOCCOCCOc1cccc(NC(=O)c2cccc(C(=O)Nc3cccc(O*)c3)c2)c1 (repeat unit),111.00
14,*c1ccc(Oc2ccc(Oc3ccc(N4C(=O)c5ccc(Oc6cccc7c6C(=O)N(*)C7=O)cc5C4=O)cc3)cc2)cc1 (repeat unit),249.00
15,*Nc1ccc(NC(=O)c2ccc(NC(=O)CCCCCCCCCCC(=O)Nc3ccc(C(*)=O)cc3)cc2)cc1C(=O)OCCCCCCCCCCCC (repeat unit),205.50
16,*CC(*)(C)C(=O)OCCCCCCOc1ccc(/N=N/c2ccc(OC)cc2)cc1 (repeat unit),91.00
17,*c1ccc2c(c1)C(=O)N(c1cccc(C(C)(C)c3ccc(N4C(=O)c5ccc(C(*)(C(F)(F)F)C(F)(F)F)cc5C4=O)cc3)c1)C2=O (repeat unit),260.00
18,*CC(*)c1ccc(C(=O)OCCN(CC)CC)cc1 (repeat unit),74.00
19,*CCN(CCOC(=O)c1cc(OC2CCN(c3ccc(S(=O)(=O)C(F)(F)C(F)(F)C(F)(F)C(F)(F)C(F)(F)C(F)(F)C(F)(F)C(F)(F)F)cc3)CC2)cc(C(=O)O*)c1)c1ccc(S(=O)(=O)C(F)(F)C(F)(F)C(F)(F)C(F)(F)C(F)(F)C(F)(F)C(F)(F)C(F)(F)F)cc1 (repeat unit),99.00
20,*Oc1ccc(C(C)(C)c2ccc(Oc3cncc(*)n3)cc2)cc1 (repeat unit),145.00
